Assay [1] concerns the target T1, wild type human RORγt ligand binding domain (RORyt LBD) (Homo sapiens, UniProt P51449).
T1 construct: His-tag (N); TurboTEV protease cleavage site (ENLYFQG) (N); made in house; host or cells: E. coli (pHIS1, modified pET vector)
T1 sequence (P51449 258-518): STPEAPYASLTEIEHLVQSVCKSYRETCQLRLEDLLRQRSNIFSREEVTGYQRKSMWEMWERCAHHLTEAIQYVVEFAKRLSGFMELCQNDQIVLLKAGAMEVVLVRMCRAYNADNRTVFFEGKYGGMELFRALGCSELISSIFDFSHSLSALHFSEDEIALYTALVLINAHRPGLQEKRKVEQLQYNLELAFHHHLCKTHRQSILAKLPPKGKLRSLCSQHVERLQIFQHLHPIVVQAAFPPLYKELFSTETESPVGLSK
Nature of the assay: RORγt ThermoFluor assay (thermal shift, binding affinity KD). (In DSF a fluorescence change marks the thermal transition of the protein.)

For assay [2], the target named is T2, wild type human RORγt LBD (Homo sapiens, UniProt P51449).
T2 construct: expressed in transfected cells; host or cells: HEK293T
T2 sequence (P51449 258-518): T1 sequence (P51449 258-518)
Nature of the assay: RORγt (LBD) Reporter Assay (GAL4-luciferase, HEK293T cells). The class given is cell-based. The settings on record: for RORγt (LBD) Reporter Assay, % inhibition @ 6 µM: 6 µM compound concentration; for inhibition at 6 µM: HEK-293T, read-out: RORγt (LBD) Reporter Assay, % inhibition @ 6 µM, 6 µM compound concentration. (In general: A reporter such as luciferase makes a cellular process visible.)

[3] abbreviates: HEK293T cells, value after the comma with ∼, > or < could not be included in the average.

With `Cn1cc(-c2nc3ccc(C(O)(c4ccc(C(F)(F)F)nc4)c4cncn4C)cc3c(C#N)c2Cc2ccccc2)cn1` (single isomer, unassigned) [Example 112b, 3-Benzyl-6-(hydroxy(1-methyl-1H-imidazol-5-yl)(6-(trifluoromethyl)pyridin-3-yl)methyl)-2-(1-methyl-1H-pyrazol-4-yl)quinoline-4-carbonitrile], in assay [1], the Kd worked out at 2200 nM. Further, in assay [2], the “RORγt (LBD) Reporter Assay, % inhibition @ 6 µM” value (shortened to “RORγt … % inhibition @ 6 µM”) is on record as 92%. In assay [2] (setting [3]), this compound showed a half-inhibitory concentration (IC50) of 450 nM.
The matching figures for `Cn1cc(-c2nc3ccc(C(O)(c4ccc(C(F)(F)F)nc4)c4cncn4C)cc3c(C#N)c2Cc2ccccc2)cn1` (single isomer, unassigned) [Example 112c, 3-Benzyl-6-(hydroxy(1-methyl-1H-imidazol-5-yl)(6-(trifluoromethyl)pyridin-3-yl)methyl)-2-(1-methyl-1H-pyrazol-4-yl)quinoline-4-carbonitrile]: 13000 nM, 71% and around 5000 nM.
In the case of `Cn1cncc1C(O)(c1ccc(C(F)(F)F)nc1)c1ccc2nc(-c3nccn3C)c(Cc3ccccc3)c(Cl)c2c1` (single isomer, unassigned) [Example 113b, (3-Benzyl-4-chloro-2-(1-methyl-1H-imidazol-2-yl)quinolin-6-yl)(1-methyl-1H-imidazol-5-yl)(6-(trifluoromethyl)pyridin-3-yl)methanol], the Kd in assay [1] was 23000 nM. In assay [2] (HEK293T cells), the IC50 is around 6000 nM and the inhibition at 6 µM turned out to be 58%.
`COc1nc2ccc(C(O)(c3ccc(C)nc3C)c3cnnn3C)cc2c(Cl)c1Cc1ccc(S(C)(=O)=O)cc1` (single isomer, unassigned) [Example 117b, (4-Chloro-2-methoxy-3-(4-(methylsulfonyl)benzyl)quinolin-6-yl)(2,6-dimethylpyridin-3-yl)(1-methyl-1H-1,2,3-triazol-5-yl)methanol]: the dissociation constant Kd in assay [1] came to 1300 nM. For the same compound, in assay [2] (HEK293T cells), the IC50 was around 4000 nM and the inhibition at 6 µM amounted to 88%.
Consider `COc1nc2ccc(C(O)(c3ccc(C)nc3C)c3cnnn3C)cc2c(Cl)c1Cc1ccc(S(C)(=O)=O)cc1` (single isomer, unassigned) [Example 117c, (4-Chloro-2-methoxy-3-(4-(methylsulfonyl)benzyl)quinolin-6-yl)(2,6-dimethylpyridin-3-yl)(1-methyl-1H-1,2,3-triazol-5-yl)methanol], for which the dissociation constant Kd in assay [1] was found to be 5.5 nM. Moreover, in assay [2] (HEK293T cells), the “RORγt … % inhibition @ 6 µM” value was 101% and the IC50 came out at 52 nM.
Regarding `COc1nc2ccc(C(O)(c3ncccn3)c3cncn3C)cc2c(Cl)c1Cc1ccc(-n2cccn2)cc1` (single isomer, unassigned) [Example 131b, {4-Chloro-2-methoxy-3-[4-(1H-pyrazol-1-yl)benzyl]quinolin-6-yl}(1-methyl-1H-imidazol-5-yl)pyrimidin-2-ylmethanol], the dissociation constant (Kd) in assay [1] was determined as 9000 nM. Moreover, in assay [2] (HEK293T cells), the “RORγt … % inhibition @ 6 µM” value stood at 59% and the IC50 is around 6000 nM.
The corresponding values for `COc1nc2ccc(C(O)(c3ncccn3)c3cncn3C)cc2c(Cl)c1Cc1ccc(-n2cccn2)cc1` (single isomer, unassigned) [Example 131c, {4-Chloro-2-methoxy-3-[4-(1H-pyrazol-1-yl)benzyl]quinolin-6-yl}(1-methyl-1H-imidazol-5-yl)pyrimidin-2-ylmethanol] are 220 nM, 100% and 1600 nM.
In the case of `COC1CN(c2nc3ccc(C(O)(c4ccc(C(F)(F)F)nc4)c4cncn4C)cc3c(Cl)c2Cc2ccc(-n3cccn3)cc2)C1` (single isomer, unassigned) [Example 133b, {4-Chloro-2-(3-methoxyazetidin-1-yl)-3-[4-(1H-pyrazol-1-yl)benzyl]quinolin-6-yl}(1-methyl-1H-imidazol-5-yl)[6-(trifluoromethyl)pyridin-3-yl]methanol], the Kd in assay [1] was found to be 330 nM. Moreover, in assay [2] (HEK293T cells), the 50% inhibitory concentration (IC50) was 840 nM and the inhibition at 6 µM was found to be 99%.
On to `COC1CN(c2nc3ccc(C(O)(c4ccc(C(F)(F)F)nc4)c4cncn4C)cc3c(Cl)c2Cc2ccc(-n3cccn3)cc2)C1` (single isomer, unassigned) [Example 133c, {4-Chloro-2-(3-methoxyazetidin-1-yl)-3-[4-(1H-pyrazol-1-yl)benzyl]quinolin-6-yl}(1-methyl-1H-imidazol-5-yl)[6-(trifluoromethyl)pyridin-3-yl]methanol], for which the Kd in assay [1] amounted to 12000 nM. For the same compound, in assay [2] (HEK293T cells), the “RORγt … % inhibition @ 6 µM” value worked out at 82% and half-maximal inhibition (IC50) was put at 1200 nM.
Take `Cn1cncc1C(O)(c1ccc(C(F)(F)F)nc1)c1ccc2nc(N3CC(O)C3)c(Cc3ccc(-n4cccn4)cc3)c(Cl)c2c1` (single isomer, unassigned) [Example 134b, 1-(4-Chloro-6-{hydroxy(1-methyl-1H-imidazol-5-yl)[6-(trifluoromethyl)pyridin-3-yl]methyl}-3-[4-(1H-pyrazol-1-yl)benzyl]quinolin-2-yl)azetidin-3-ol]: in assay [1], the equilibrium dissociation constant (Kd) amounted to 220 nM. Besides, in assay [2] (HEK293T cells), the half-maximal inhibitory concentration (IC50) was 420 nM and the inhibition at 6 µM amounted to 101%.
`Cn1cncc1C(O)(c1ccc(C(F)(F)F)nc1)c1ccc2nc(N3CC(O)C3)c(Cc3ccc(-n4cccn4)cc3)c(Cl)c2c1` (single isomer, unassigned) [Example 134c, 1-(4-Chloro-6-{hydroxy(1-methyl-1H-imidazol-5-yl)[6-(trifluoromethyl)pyridin-3-yl]methyl}-3-[4-(1H-pyrazol-1-yl)benzyl]quinolin-2-yl)azetidin-3-ol]: the dissociation constant (Kd) in assay [1] came out at 1200 nM. Besides, in assay [2] (HEK293T cells), the “RORγt … % inhibition @ 6 µM” value is recorded as 96% and the IC50 worked out at 1100 nM.
Take `Cn1cncc1C(O)(c1ccc(C(F)(F)F)nc1)c1ccc2nc(N3CC(F)(F)C3)c(Cc3ccc(-n4cccn4)cc3)c(Cl)c2c1` (single isomer, unassigned) [Example 135b, {4-Chloro-2-(3,3-difluoroazetidin-1-yl)-3-[4-(1H-pyrazol-1-yl)benzyl]quinolin-6-yl}(1-methyl-1H-imidazol-5-yl)[6-(trifluoromethyl)pyridin-3-yl]methanol]: in assay [1], the equilibrium dissociation constant (Kd) worked out at 160 nM. In assay [2] (HEK293T cells), the IC50 was 260 nM and the inhibition at 6 µM was 99%.
As to `Cn1cncc1C(O)(c1ccc(C(F)(F)F)nc1)c1ccc2nc(N3CC(F)(F)C3)c(Cc3ccc(-n4cccn4)cc3)c(Cl)c2c1` (single isomer, unassigned) [Example 135c, {4-Chloro-2-(3,3-difluoroazetidin-1-yl)-3-[4-(1H-pyrazol-1-yl)benzyl]quinolin-6-yl}(1-methyl-1H-imidazol-5-yl)[6-(trifluoromethyl)pyridin-3-yl]methanol], the Kd in assay [1] came to 23 nM. Besides, in assay [2] (HEK293T cells), the “RORγt … % inhibition @ 6 µM” value was 95% and 77 nM corresponded to half-maximal inhibition (IC50).
For `Cc1cc(C(O)(c2ccc(Cl)cc2)c2cncn2C)cc2c(Cl)c(Cc3ccc(-n4cccn4)cc3)c(N3CCC3)nc12` (single isomer, unassigned) [Example 136b, {2-Azetidin-1-yl-4-chloro-8-methyl-3-[4-(1H-pyrazol-1-yl)benzyl]quinolin-6-yl}(4-chlorophenyl)(1-methyl-1H-imidazol-5-yl)methanol], the Kd in assay [1] amounted to 2300 nM. For the same compound, in assay [2] (HEK293T cells), half-maximal inhibition (IC50) required 1000 nM and the inhibition at 6 µM stood at 83%.
Regarding `Cc1cc(C(O)(c2ccc(Cl)cc2)c2cncn2C)cc2c(Cl)c(Cc3ccc(-n4cccn4)cc3)c(N3CCC3)nc12` (single isomer, unassigned) [Example 136c, {2-Azetidin-1-yl-4-chloro-8-methyl-3-[4-(1H-pyrazol-1-yl)benzyl]quinolin-6-yl}(4-chlorophenyl)(1-methyl-1H-imidazol-5-yl)methanol], the dissociation constant Kd in assay [1] is 19 nM. In addition, in assay [2] (HEK293T cells), the “RORγt … % inhibition @ 6 µM” value is 97% and the midpoint of inhibition, the IC50, lay at 140 nM.
In the case of `Cc1cc(C(O)(c2ccc(C(F)(F)F)nc2)c2cncn2C)cc2c(Cl)c(Cc3ccc(-n4cccn4)cc3)c(N3CCC3)nc12` (single isomer, unassigned) [Example 137b, {2-Azetidin-1-yl-4-chloro-8-methyl-3-[4-(1H-pyrazol-1-yl)benzyl]quinolin-6-yl}(1-methyl-1H-imidazol-5-yl)[6-(trifluoromethyl)pyridin-3-yl]methanol], the Kd in assay [1] turned out to be 41 nM. Moreover, in assay [2] (HEK293T cells), the IC50 is 160 nM and the inhibition at 6 µM amounted to 93%.
As for `Cc1cc(C(O)(c2ccc(C(F)(F)F)nc2)c2cncn2C)cc2c(Cl)c(Cc3ccc(-n4cccn4)cc3)c(N3CCC3)nc12` (single isomer, unassigned) [Example 137c, {2-Azetidin-1-yl-4-chloro-8-methyl-3-[4-(1H-pyrazol-1-yl)benzyl]quinolin-6-yl}(1-methyl-1H-imidazol-5-yl)[6-(trifluoromethyl)pyridin-3-yl]methanol], the Kd in assay [1] came to 4.5 nM. For the same compound, in assay [2] (HEK293T cells), the “RORγt … % inhibition @ 6 µM” value came to 94% and the IC50 turned out to be 140 nM.
`Cn1cncc1C(O)(c1ccc(Cl)cc1)c1ccc2nc(N3CCC3)c(Cc3ccc(-n4cccn4)cc3)c(Cl)c2c1` (single isomer, unassigned) [Example 138b, {2-Azetidin-1-yl-4-chloro-3-[4-(1H-pyrazol-1-yl)benzyl]quinolin-6-yl}(4-chlorophenyl)(1-methyl-1H-imidazol-5-yl)methanol]: in assay [1], the Kd was 1300 nM. Further, in assay [2] (HEK293T cells), the half-maximal inhibitory concentration (IC50) worked out at 560 nM and the inhibition at 6 µM came to 101%.

A word on the Kd: it is the concentration at which binding is half-saturated. The term IC50 denotes the concentration that gives 50% inhibition. A lower IC50 goes with higher potency.

The values above are taken from patent EP3057951B1, “METHYLENE LINKED QUINOLINYL MODULATORS OF ROR-GAMMA-T” (Janssen Pharmaceutica NV, priority 2013, dated 2015).
